Data as given in patent US11434479B2, “Sialic acid binding polypeptide” (priority 2017, dated 2022).
Positions count from the first letter of the chain named.

Key:
[1] = target: T1, Streptococcus pneumoniae NanB fragment (residues 30-697, SEQ ID NO:4) variant Sia-PS2, D270A (Streptococcus pneumoniae serotype 4, UniProt Q54727, D270A); experiment: Bio-layer Interferometry (BLI) steady-state binding to immobilized oligosaccharides; conditions: in words
T1 construct: exemplified by a NanB fragment (residues 30-697); made in house; host or cells: pET28a+ based plasmid
T1 sequence (Q54727 30-692 D270A): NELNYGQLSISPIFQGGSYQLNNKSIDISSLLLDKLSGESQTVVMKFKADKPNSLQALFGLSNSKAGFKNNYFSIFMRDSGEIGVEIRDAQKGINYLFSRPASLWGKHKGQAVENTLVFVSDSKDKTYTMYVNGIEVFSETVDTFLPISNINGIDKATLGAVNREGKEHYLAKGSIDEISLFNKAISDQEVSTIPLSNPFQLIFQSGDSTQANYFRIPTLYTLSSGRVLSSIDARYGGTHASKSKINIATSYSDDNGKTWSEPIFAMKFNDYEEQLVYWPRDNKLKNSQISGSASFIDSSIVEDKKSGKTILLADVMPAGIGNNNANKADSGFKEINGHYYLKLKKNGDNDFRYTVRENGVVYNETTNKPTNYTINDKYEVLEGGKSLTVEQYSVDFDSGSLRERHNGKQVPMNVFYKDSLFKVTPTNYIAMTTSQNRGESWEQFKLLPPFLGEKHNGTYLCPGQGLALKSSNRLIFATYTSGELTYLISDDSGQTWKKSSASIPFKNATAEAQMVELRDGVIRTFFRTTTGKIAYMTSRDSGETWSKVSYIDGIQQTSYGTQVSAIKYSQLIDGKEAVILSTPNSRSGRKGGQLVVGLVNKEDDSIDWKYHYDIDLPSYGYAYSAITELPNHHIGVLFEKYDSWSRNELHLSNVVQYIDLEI
Excerpt: (§1) Lsp=lactose (no sialic acid), 3′SL=α2,3-sialyllactose, 6′SL=α2,6-sialyllactose, GD3=GD3 oligosaccharide that contains a terminal α2,8-linked Neu5Ac residue and an internal α2,3-linked Neu5Ac residue.
(§2) The pan-specific sialic acid-recognizing affinity reagent of the invention is exemplified by a NanB fragment (residues 30-697; SEQ ID NO:4) with a single mutation. Exemplary mutation sites include Y653, D270, and E541. Exemplary pan-specific affinity reagents, each having a single mutation in the NanB GH domain as noted, are shown in Table 2 and include Sia-PS1 (Y653F), Sia-PS2 (D270A), Sia-PS3 (D270N), Sia-PS4 (E541A), and Sia-PS5 (E541Q). […] They reduce (Sia-PS2 and Sia-PS3) or effectively eliminate (Sia-PS1, Sia-PS4, and Sia-PS5) catalytic activity, and they broaden specificity for sialic acid ligand binding. The pan-specific sialic acid-recognizing affinity reagent we chose for further validation study was Sia-PS1 that contains the Y653F at active site residue Tyr653. This one mutation, which involves removal of a single hydroxyl group, not only eliminates enzyme activity, but astonishingly introduces pan-specific binding into the mutated, inactivated enzyme, despite its distance from the carbohydrate binding module (CBM) domain of the NanB.
(§3) The flowchart presented in FIG. 2 outlines schematically the methods employed in Example I and II to screen, optimize and select the Lectenz® candidates. The specificity and affinity of potential Lectenz® candidates is evaluated through structurally-guided site-specific and/or site-saturation mutagenesis assays designed to enable the selection of optimal clones. Bio-layer Interferometry (BLI) is used to determine the binding kinetics and affinities for binding to glycans and glycoproteins. Affinity chromatography is performed by immobilizing the Lectenz® candidates in a column format to evaluate their ability to fractionate sialylated- and asialo-glycans and glycoconjugates. All promising Lectenz® candidates are screened against the glycan array at the CFG, which currently contains over 600 O- and N-linked glycans.
(§4) Steady-state binding constants between Lectenz® candidates and sialic acid ligands were measured by BLI.

[2] = target: T2, Streptococcus pneumoniae NanB fragment (residues 30-697, SEQ ID NO:4) variant Sia-PS3, D270N (Streptococcus pneumoniae serotype 4, UniProt Q54727, D270N); experiment: as above; conditions: in words
T2 construct: exemplified by a NanB fragment (residues 30-697); made in house; host or cells: pET28a+ based plasmid
T2 sequence (Q54727 30-692 D270N): T1 sequence (Q54727 30-692 D270A) with A241N
Excerpt: as §1, §2, §3, §4

SMILES: CC(=O)N[C@H]1[C@H]([C@H](O)[C@H](O)CO)O[C@@](O[C@H]2[C@@H](O)[C@@H](CO)O[C@@H](O[C@H]3[C@H](O)[C@@H](O)C(O)O[C@@H]3CO)[C@@H]2O)(C(=O)O)C[C@@H]1O (stereo partly drawn) [3′SL, α2,3-sialyllactose]
- KD value [1]: higher KD value
- binding affinity [1]: micromolar or sub-micromolar
- binding affinity [2]: micromolar or sub-micromolar

SMILES: CC(=O)N[C@H]1[C@H]([C@H](O)[C@H](O)CO)O[C@@](OC[C@H]2O[C@@H](O[C@H]3[C@H](O)[C@@H](O)C(O)O[C@@H]3CO)[C@H](O)[C@@H](O)[C@H]2O)(C(=O)O)C[C@@H]1O (stereo partly shown) [6′SL, 6′-sialyllactose (Neu5Acα2,6Galβ1, 4Glcβ, or 6′SL)]
- binding affinity [1]: micromolar or sub-micromolar
- binding affinity [2]: micromolar or sub-micromolar

SMILES: CC(=O)N[C@H]1[C@H]([C@H](O)[C@H](O)CO)O[C@@](O[C@H](CO)[C@@H](O)[C@@H]2O[C@@](O[C@H]3[C@@H](O)[C@@H](CO)O[C@@H](O[C@H]4[C@H](O)[C@@H](O)C(O)O[C@@H]4CO)[C@@H]3O)(C(=O)O)C[C@H](O)[C@H]2NC(C)=O)(C(=O)O)C[C@@H]1O (stereo partly shown) [GD3, Neu5Acα2,8Neu5Acα2,3Galβ1, 4Glcβ]
- binding affinity [1]: micromolar or sub-micromolar
- binding affinity [2]: micromolar or sub-micromolar
